Tests used:
Type in all cases: cell-based, human
[1] = test system: peripheral blood mononuclear cells (PBMC), T cells; assay: ELISpot assay, IL-5 release (SFC) after stimulation with a-synuclein epitope pools; conditions: for IL-g Peptide + (donors positive to the peptide): of donors tested (peptide); for IL-g Peptide +: number of donors positive to the single peptide
Method in brief: (§1)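 Samples came from 44 PD patients and 24 matched controls, tested blindly. Their PBMC were stimulated for 22 hours at 37 C with α-synuclein peptide pools, and pools that responded were resolved into individual epitopes.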

[2] = test system: peripheral blood mononuclear cells (PBMC), T cells; assay: ELISpot assay, IFNg and IL-5 reactivity combined, T cell response to α-syn epitopes; conditions: for Peptides + in Patients & Normals: flag 1/0 per peptide; for epitope identified by deconvolution of T cell response, in words: PD patients, region including Y39
Protocol: Blood from age matched controls and PD patients were obtained and mononuclear cells were isolated by gradient centrifugation.
Release of the cytokines gamma-interferon, which measures activation of CD4+ and/or CD8+ T cells, and the interleukin, IL-5, which measures activation of CD4+ T cells was measured by ELISpot assay. […] After 22 hours of stimulation at 37 C, the cells were removed and release of cytokines was measured by colorimetric detection of spot-forming cells (SFC). Confirmed release of cytokine is determined by the presence of a minimum of 20 SFC per million cells.
The binding algorithms in SubAim 1 predict how well the peptides would bind to MHC if present, but not if they are present in patients. To determine this, the presence of T cell response against the candidate antigens by patient blood-derived peripheral blood mononuclear cells (PBMC) is assessed by ELISPOT assays upon stimulation with the peptides. This assay detects and quantifies cytokine release (in this case, IFNγ and IL-5) from specific activated T cells.
Data were obtained from blood samples (25 ml) from 44 PD patients and 24 age-matched controls. The experiments were conducted blindly. PBMCs from these samples were isolated and exposed to pools comprising the 122 candidate class I and class II antigens and phosphorylated S129 epitopes generated in Subaim 1. For the PBMCs responsive to the pooled peptides, the response was then deconvoluted to identify individual epitopes.
PMBC fractions are recovered by standard methods with Ficoll gradient and T cells expansion (Oseroff et al., 2010). The methods for the analysis of T cell reactions and measurement of cytokines production using the enzyme-linked immunosorbent spot (ELISPOT) assay are published in analogous experiments to discover antigens in multiple sclerosis (Lolli et al., 2013) and in hay fever allergens (Oseroff et al., 2010). T cell responses are determined by measuring IFNγ and IL-5 release by ELISPOT. Statistical analysis of differences between populations is expected to be non-parametric and analyzed with the U-Mann-Whitney test. If there were a normal distribution of response, which is a priori unlikely as some patients have no T cell response, with an SD=1, 8 patients per group would be required to provide a p>90% that the study detect a >2 fold difference at a two-sided 0.05 significance level.

[3] = test system: peripheral blood mononuclear cells (PBMC), T cells; assay: ELISpot assay, gamma-interferon release (SFC) after stimulation with a-synuclein epitope pools; conditions: for IFNg Peptide + (donors positive to the peptide): of donors tested (peptide); for IFNg Peptide +: number of donors positive to the single peptide
Method in brief: as §1

[4] = Normals Summary, single peptide
[5] = Patients Summary, PD patients, single peptide
[6] = second 'Pool Stimulated' section (from r296), 12 donors tested
[7] = peptide + / donors tested (peptide), second 'Pool Stimulated' section (from r296), 12 donors tested
[8] = single peptide, second 'Pool Stimulated' section (from r296), 12 donors tested

Substance	IL-g Peptide + (donors positive to the peptide) ([1]; Normals Summary)	IL-g Response Frequency [1, 4] [%]	IL-g Total SFC [1, 4] [SFC]	IL-g Peptide + (donors positive to the peptide) ([1]; Patients Summary, PD patients)	IL-g Response Frequency [1, 5] [%]	IL-g Total SFC [1, 5] [SFC]	Peptides + in Patients & Normals [2]	IFNg Peptide + (donors positive to the peptide) ([3]; Normals Summary)	IFNg Response Frequency [3, 4] [%]	IFNg Total SFC [3, 4] [SFC]	IFNg Peptide + (donors positive to the peptide) ([3]; Patients Summary, PD patients)	IFNg Response Frequency [3, 5] [%]	IFNg Total SFC [3, 5] [SFC]	IL-g Peptide + [1, 6]	IL-g Response Frequency [1, 7] [%]	IL-g Total SFC [1, 8] [SFC]	IFNg Peptide + [3, 6]	IFNg Response Frequency [3, 7] [%]	IFNg Total SFC [3, 8] [SFC]	further results
3521.001 (VFMKGLSKA; listed as Homo sapiens)	1	100	193	1	33	634	1	1	100	220	1	33	75							IL-g Avg SFC [1, 4]: 193 SFC; IL-g Avg SFC [1, 5]: 634 SFC; IFNg Avg SFC [3, 4]: 220 SFC; IFNg Avg SFC [3, 5]: 75 SFC
3521.0004 (KTKEGVLYV; listed as Homo sapiens)				0	0	0	0				0	0	0	0	0	0	0	0	0	
3521.007 (GVVAAAEKTK; listed as Homo sapiens)				1	33	23	0				2	67	225	0	0	0	0	0	0	IL-g Avg SFC [1, 5]: 23 SFC; IFNg Avg SFC [3, 5]: 113 SFC
3521.008 (VAAAEKTKQGVAEAA; listed as Homo sapiens)				0	0	0	0				1	33	150	0	0	0	0	0	0	IFNg Avg SFC [3, 5]: 150 SFC
3521.0012 (KTKQGVAEA; listed as Homo sapiens)	0	0	0	0	0	0	0	0	0	0	0	0	0							
3521.0016 (DVFMKGLSK; listed as Homo sapiens)	1	100	780	0	0	0	0	1	100	673	0	0	0							IL-g Avg SFC [1, 4]: 180 SFC; IFNg Avg SFC [3, 4]: 673 SFC
3521.0017 (FMKGLSKAK; listed as Homo sapiens)	0	0	0	0	0	0	0	1	100	46.7	0	0	0							IFNg Avg SFC [3, 4]: 46.7 SFC
3521.0043 (VFMKGLSKAK; listed as Homo sapiens)				1	33	191	1				0	0	0	1	100	93.3	1	100	66.7	IL-g Avg SFC [1, 5]: 191 SFC; IL-g Avg SFC [1, 8]: 93.3 SFC; IFNg Avg SFC [3, 8]: 66.7 SFC
3521.0046 (FMKGLSKAKE; listed as Homo sapiens)				0	0	0	0				0	0	0	0	0	0	0	0	0	
3521.0052 (KTKQGVAEAA; listed as Homo sapiens)				0	0	0	0				0	0	0	0	0	0	0	0	0	
GVLYVGSKTK (listed as Homo sapiens)																				epitope identified by deconvolution of T cell response, in words [2]: antigenic
VLYVGSKTK (listed as Homo sapiens)																				epitope identified by deconvolution of T cell response, in words [2]: antigenic

From US20170184612A1, “USE OF LEUKOCYTES AND NOVEL BIOMARKERS IN THE DIAGNOSIS, CONFIRMATION, AND TREATMENT OF A NEUROLOGICAL DISORDER” (The Trustees of Columbia University in the City of New York, priority 2014, published 2017)
